Data on 13 compounds can be found in ChEMBL document CHEMBL1201862, “PubChem BioAssay data set” (2004).

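Each compound was tested at five concentrations against cells in 96-well plates for 48 hours. GI50 = concentration required for 50% inhibition of growth.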 Activity calls are given as the source filed them. No stated cut-off is given here; in the data, active = GI50 up to about 1.1 µM and inactive = higher.

Test systems include HCT-15; SNB-19; SK-MEL-2; CCRF-CEM; K562; NCI-H460; NCI/ADR-RES; IGROV-1; UACC-257; RPMI-8226; HL-60; NCI-H23; LOX IMVI; OVCAR-8; NCI-H522; SF-295; HOP-92; TK-10.
What all share (assay): DTP human tumour cell line panel, 48 h

The GI50 is the concentration at which growth is held to half of that of the control. For `COC1C(O)C(n2ncc3c(SC)nc(SC)nc32)OC1C(O)CO` (configuration not stated), the GI50 in the test with HCT-15 is greater than 100 µM; in the test with SNB-19 it was > 100 µM (inactive); in the test with SK-MEL-2, > 100 µM (inactive); with CCRF-CEM, > 100 µM (inactive); in the test on K562 it was > 100 µM (inactive); in the test on NCI-H460, > 100 µM (inactive). Besides, the GI50 was > 100 µM (inactive) with NCI/ADR-RES; > 100 µM (inactive) in the test on IGROV-1; > 37.6 µM (inactive) with UACC-257; > 100 µM (inactive) with RPMI-8226; > 100 µM (inactive) in the test on HL-60; > 100 µM (inactive) with NCI-H23. The GI50 in the test with LOX IMVI, in the test on OVCAR-8, in the test with NCI-H522, in the test on SF-295 and with HOP-92 was > 100 µM (inactive) throughout.

In the case of `O=C1NC(=O)C(CCO)(c2ccccc2)C(=O)N1`, the GI50 is greater than 100 µM in the test on HCT-15; > 100 µM (inactive) with SNB-19; > 100 µM (inactive) in the test with SK-MEL-2; > 100 µM (inactive) in the test with CCRF-CEM; > 100 µM (inactive) with K562; > 100 µM (inactive) with NCI-H460. The GI50 in the test on NCI/ADR-RES was > 100 µM (inactive); with IGROV-1 it was > 100 µM (inactive); with UACC-257, > 100 µM (inactive); in the test on HL-60 it was > 100 µM (inactive); in the test with NCI-H23, > 100 µM (inactive); in the test on LOX IMVI it was > 31.6 µM (inactive). Further, the GI50 with OVCAR-8, in the test on NCI-H522, in the test with SF-295 and with HOP-92 was > 100 µM (inactive) each time.

For the compound `Nc1ccccc1S(=O)(=O)c1ccccc1`, the GI50 in the test on HCT-15 is greater than 100 µM; in the test with SNB-19 it was > 100 µM (inactive); in the test with SK-MEL-2 it was > 100 µM (inactive); in the test with CCRF-CEM, > 100 µM (inactive); with K562 it was > 100 µM (inactive); in the test with NCI-H460, > 100 µM (inactive). In addition, the GI50 in the test with IGROV-1, in the test on UACC-257, in the test on RPMI-8226, with TK-10, with HL-60 and in the test on NCI-H23 was > 100 µM (inactive) each time. Further, the GI50 in the test with LOX IMVI, in the test on OVCAR-8, with SF-295 and with HOP-92 was > 100 µM (inactive) each time.

With `COc1ccc2[nH]c3c(C)c4ccncc4c(C)c3c2c1`, the GI50 in the test on HCT-15 is 0.22 µM; with SNB-19, 0.532 µM (active); in the test with SK-MEL-2, 1.86 µM (inactive); in the test on CCRF-CEM, 0.0982 µM (active); in the test on K562, 0.196 µM (active); in the test with NCI-H460, 0.0292 µM (active). Further, the GI50 is 0.139 µM (active) with NCI/ADR-RES; 0.289 µM (active) in the test on IGROV-1; 1.85 µM (inactive) in the test with UACC-257; 0.289 µM (active) in the test on RPMI-8226; 0.532 µM (active) in the test with HL-60; 0.34 µM (active) with NCI-H23. Besides, the GI50 in the test on LOX IMVI is 0.251 µM (active); in the test with OVCAR-8 it was 0.111 µM (active); with NCI-H522, 0.681 µM (active); in the test with SF-295, 0.521 µM (active); in the test on HOP-92, 0.23 µM (active).

Turning to `CCOC(=O)c1c[nH]c2cc3c(cc2c1=O)CCS3(=O)=O.CCOC(=O)c1c[nH]c2ccc3c(c2c1=O)S(=O)(=O)CC3`, the GI50 in the test with HCT-15 was greater than 100 µM; in the test on SNB-19 it was > 100 µM (inactive); in the test on SK-MEL-2, > 100 µM (inactive); in the test with CCRF-CEM, > 100 µM (inactive); in the test on K562, > 100 µM (inactive); in the test with NCI-H460, > 100 µM (inactive). Also, the GI50 in the test with NCI/ADR-RES, in the test with IGROV-1, in the test on UACC-257, in the test with RPMI-8226, with HL-60 and with NCI-H23 was > 100 µM (inactive) throughout. Moreover, the GI50 with LOX IMVI, with OVCAR-8, in the test on NCI-H522, in the test on SF-295 and in the test with HOP-92 was > 100 µM (inactive) each time.

Consider `Cc1ccc(C#CS(=O)(=O)C(F)(F)F)cc1`, for which the concentration for 50% growth inhibition (GI50) is greater than 100 µM in the test on HCT-15; > 100 µM (inactive) in the test on SNB-19; > 100 µM (inactive) in the test on SK-MEL-2; > 100 µM (inactive) in the test with CCRF-CEM; > 100 µM (inactive) in the test with K562; > 100 µM (inactive) with NCI-H460. For the same compound, the GI50 was > 100 µM (inactive) in the test with NCI/ADR-RES; > 100 µM (inactive) in the test with IGROV-1; > 100 µM (inactive) in the test with UACC-257; > 100 µM (inactive) in the test with RPMI-8226; > 31.6 µM (inactive) with HL-60; > 100 µM (inactive) with NCI-H23. Moreover, the GI50 is > 31.6 µM (inactive) in the test on LOX IMVI; > 100 µM (inactive) in the test on OVCAR-8; > 100 µM (inactive) in the test on NCI-H522; > 31.6 µM (inactive) with SF-295; > 100 µM (inactive) with HOP-92.

As for `CN(C)CCCNC(=O)N/N=C/c1ccccc1`, the GI50 with HCT-15 is greater than 100 µM; with SNB-19, > 100 µM (inactive); in the test with SK-MEL-2, > 100 µM (inactive); in the test on CCRF-CEM, > 100 µM (inactive); with K562, > 100 µM (inactive); in the test with NCI-H460, > 100 µM (inactive). The GI50 in the test with IGROV-1, in the test with UACC-257, in the test with TK-10, in the test with HL-60, with LOX IMVI and with OVCAR-8 was > 100 µM (inactive) throughout. Moreover, the GI50 with NCI-H522 and in the test on SF-295 was > 100 µM (inactive) each time.

Consider `CC(=O)SCCC1c2[nH]c3ccccc3c2CCN1O` (configuration not stated), for which the GI50 is 71.6 µM in the test with HCT-15; > 100 µM (inactive) with SNB-19; > 100 µM (inactive) in the test on SK-MEL-2; 31.8 µM (inactive) with CCRF-CEM; 32.4 µM (inactive) with K562; 82.8 µM (inactive) with NCI-H460. The GI50 was > 100 µM (inactive) in the test with IGROV-1; > 100 µM (inactive) with UACC-257; 35.2 µM (inactive) with RPMI-8226; > 100 µM (inactive) in the test with TK-10; 36.6 µM (inactive) in the test with HL-60; > 100 µM (inactive) with NCI-H23. Besides, the GI50 with LOX IMVI is 49 µM (inactive); with OVCAR-8, > 100 µM (inactive); with NCI-H522 it was 23.9 µM (inactive); in the test with SF-295 it was > 100 µM (inactive); in the test on HOP-92 it was 26.7 µM (inactive).

As to `COc1ccc(/C=C2\C(=O)N(C(=O)c3ccc(NC(C)=O)cc3)N=C2C)cc1`, the GI50 in the test with HCT-15 is greater than 100 µM; in the test on SNB-19, > 100 µM (inactive); in the test on SK-MEL-2 it was > 100 µM (inactive); in the test on CCRF-CEM, > 100 µM (inactive); in the test on K562, > 100 µM (inactive); in the test on NCI-H460, > 100 µM (inactive). Also, the GI50 with UACC-257, in the test with RPMI-8226, in the test with TK-10, in the test on HL-60, in the test on NCI-H23 and in the test on LOX IMVI was > 100 µM (inactive) each time. The GI50 with OVCAR-8, with NCI-H522 and in the test with SF-295 was > 100 µM (inactive) each time.

Regarding `Nc1ccccc1Sc1ccc(Cl)cc1`, the GI50 with HCT-15 was 28.1 µM; in the test with SK-MEL-2, 27.9 µM (inactive); in the test with CCRF-CEM, 17.9 µM (inactive); with K562 it was 27.8 µM (inactive); with NCI-H460, 24.3 µM (inactive); in the test with IGROV-1, 52 µM (inactive). Also, the GI50 with UACC-257 is 23.2 µM (inactive); in the test with RPMI-8226, 24.4 µM (inactive); in the test with TK-10, 35.6 µM (inactive); in the test with HL-60, 18.7 µM (inactive); in the test with NCI-H23, 26.2 µM (inactive); in the test on LOX IMVI, 28.6 µM (inactive). In addition, the figures for the GI50 in the test with OVCAR-8, in the test with SF-295 and in the test with HOP-92 were 37.5 µM (inactive), 27.9 µM (inactive) and 20 µM (inactive), respectively.

Take `C=CCC12CC(=O)C=C1CCC1(C2)OCCO1` (configuration not stated): the GI50 in the test on HCT-15 is greater than 100 µM; in the test with SNB-19, > 100 µM (inactive); with SK-MEL-2, > 100 µM (inactive); in the test with CCRF-CEM, > 100 µM (inactive); in the test on K562, > 100 µM (inactive); in the test with NCI-H460, > 100 µM (inactive). Also, the GI50 in the test with IGROV-1, in the test on UACC-257, in the test with RPMI-8226, with TK-10, in the test on HL-60 and in the test with NCI-H522 was > 100 µM (inactive) each time.

For the compound `O=C(O)c1ccc(Nc2c3ccccc3nc3ccccc23)cc1`, the GI50 was 64.4 µM in the test on HCT-15; > 86.7 µM (inactive) in the test with SNB-19; > 100 µM (inactive) with SK-MEL-2; 26.9 µM (inactive) in the test with CCRF-CEM; 76.2 µM (inactive) with K562; 22.6 µM (inactive) in the test on NCI-H460. Moreover, the GI50 is > 76 µM (inactive) in the test with NCI/ADR-RES; > 100 µM (inactive) in the test on IGROV-1; > 100 µM (inactive) in the test with UACC-257; 54.8 µM (inactive) in the test with RPMI-8226; 47.9 µM (inactive) in the test on HL-60; > 72.3 µM (inactive) in the test on NCI-H23. Further, the GI50 with LOX IMVI is 60.8 µM (inactive); with OVCAR-8, 64 µM (inactive); in the test on NCI-H522, > 75.7 µM (inactive); with SF-295, 45.5 µM (inactive); in the test with HOP-92 it was > 65 µM (inactive).

Turning to `CN1CC[C@]2(C)c3c(O)cccc3CC3CCCC1C32C` (some centres not stated), the concentration for 50% growth inhibition (GI50) with HCT-15 was greater than 100 µM; in the test with SNB-19 it was > 100 µM (inactive); in the test with SK-MEL-2, > 100 µM (inactive); with CCRF-CEM, > 100 µM (inactive); with K562, 91.6 µM (inactive); in the test with NCI-H460, > 100 µM (inactive). Moreover, the GI50 with IGROV-1 is > 100 µM (inactive); in the test with UACC-257, > 100 µM (inactive); in the test with RPMI-8226 it was > 100 µM (inactive); in the test on TK-10 it was > 100 µM (inactive); in the test with HL-60, 96.2 µM (inactive); in the test on NCI-H23, > 100 µM (inactive). The GI50 in the test with LOX IMVI was > 100 µM (inactive); in the test with OVCAR-8 it was > 100 µM (inactive); with NCI-H522 it was > 100 µM (inactive); with SF-295, > 100 µM (inactive); in the test on HOP-92, 89.7 µM (inactive).
